# Laboratory results from patent US20100310574A1, “METHODS AND COMPOSITIONS FOR THE TREATMENT AND DIAGNOSIS OF STATIN-INDUCED MYOPATHY” (Beth Israel Deaconess Medical Center, priority 2007, published 2010).
# “Also recorded” adds a separate entry of the source.
# Legend:
# [1] = Clinical data (CK) of statin-treated patients who gave muscle biopsies; type: in vivo, human; settings: patient with muscle pain/damage concomitantly treated with the statin; one patient per line
# Experimental: The atrogin-1 mRNA levels were measured in 17 human quadriceps muscle biopsies from five patients undergoing knee replacements (controls), from four patients with muscle pain but not being treated with statins, and from eight patients with muscle pain/damage concomitantly being treated with statins (the table below).
# Muscle biopsies: Muscle was obtained from three groups of patients whose characteristics are detailed in the above table. The statin-treated group included four subjects with statin-induced myopathy and 4 with statin-induced rhabdomyolysis, as commonly defined (Antons et al., Am. J. Med. 119:400-409, 2006). The non-statin myopathy group included four statin-naïve subjects with undefined myopathy. Both of these groups underwent percutaneous muscle biopsies of the vastus lateralis muscle using a Bergstrom needle. The control group included five statin-naïve subjects who volunteered muscle at the time of knee arthroplasty. Muscle from subjects in all three groups was snap frozen in liquid nitrogen for subsequent analysis. All subjects signed an IRB-approved consent form.
# [2] = tested on: functional mitochondria; test: MitoTracker staining and FACS of cells from zebrafish embryos; type: in vivo, Danio rerio; settings: lovastatin 0.5 or 1.0 μM
# Experimental: Mitochondrial staining and FACS analysis: Embryos were treated with lovastatin (0, 0.5, 1.0 μM at 20-32 hpf) or treated with the combination of lovastatin (0.5 μM) following PGC-1α (or vehicle) cDNA injection (100 pg/embryo at the one-cell stage). 1-Phenyl-2-thiourea (0.003%; Sigma) was added at 20 hpf. After phenotypes were observed, 100 embryos from each condition were decholionated by protease and homogenized for 3-5 minutes in 0.9× phosphate buffered saline (PBS)/10% fetal bovine serum (FBS), then centrifuged at 3000 rpm for 5 minutes, digested with trypsin/EDTA and dispersed at room temperature. After adding 1 mL of 0.9×PBS/10% FBS, the dispersed cells were filtered ([…]) and washed twice with 0.9×PBS/10% FBS. The cells were incubated in 100 nM MitoTracker Red CMXRos (Invitrogen) in 0.9×PBS/10% FBS for 15 minutes in the dark. The cells were washed twice in 0.9×PBS/10% FBS and subjected to […] (FACS) analysis. EPICS XL (Beckman Coulter) was used for the fluorescence detection (absorption wavelength: 578 nm; emission wavelength: 599 nm) and data was analyzed with Expo32ADC software. Ten thousand cells were counted for each treatment condition.
# [3] = tested on: atrogin-1 mRNA; test: Atrogin-1 mRNA in C2C12 myocytes by real time PCR; type: cell-based, mouse; settings: 10 μM
# Experimental: Quantitative PCR: Atrogin-1 mRNA levels were determined by real-time PCR using the Applied Biosystems® 7500 real-time PCR analyzer according to the method recently described by others (Okuno et al., Blood 100:4420-4426, 2002, and Yang et al., J. Cell Biochem. 94:1058-1067, 2005). Multiplexed amplification reactions were performed using 18S rRNA as an endogenous control (18S rRNA primers/VIC-labeled probe Applied Biosystems #4310893E) using the TaqMan One Step PCR Master Mix reagents Kit (#4309169, Applied Biosystems). The following settings were used: Stage 1 (reverse transcription): 48° C. for 30 min; Stage 2 (denaturation): 95° C. for 10 min; and Stage 3 (PCR): 95° C. for 15 sec and 60° C. for 60 sec for 40 cycles. […] Fluorescence data were analyzed by SDS1.7 software (Applied Biosykems). […] All RNA samples were analyzed in triplicate, with the mean value used in subsequent analyses.
# Cell Culture: Mouse myoblast cell line C2C12 was purchased from ATCC (ATCC, Manassas, Va.) and maintained in DMEM (Mediatech, Herndon, Va.) containing 10% fetal bovine serum (Hyclone, Logan, Utah) and penicillin (100U) and streptomycin (50 ug/ml; Invitrogen, Grand Island, N.Y.). […]
# Quantitative PCR: Performed as described above.
# [4] = tested on: zebrafish atrogin-1; test: Atrogin-1 mRNA and protein expression in zebrafish embryos; type: in vivo, Danio rerio; settings: lovastatin treatment
# Experimental: (§1) Zebrafish lines and maintenance: Adult zebrafish (Danio rerio) were maintained as described under standard laboratory conditions at 28.5° C. in a 14 h light/10 h dark cycle (Westerfield, “The zebrafish book: a guide for the laboratory use of zebrafish Danio (Brachydanio) rerio,” Institute of Neuroscience, University of Oregon, Eugene, Oreg., 1993). Developmental stages were determined by embryo morphology and hours post fertilization (hpf) (Kimmel et al., Dev. Dyn. 203:253-310, 1995). To examine the effects of statin, the embryos at 20-24 hpf were immersed in the embryonic water ([…], 170 μM KCl, 330 μM CaCl2, and 330 μM MgSO4) at a concentration of 0.005-10 μM lovastatin (Mevinolin; Sigma, St. Louis, Mo.) including 0.003% 1-phenyl-2-thiourea (Sigma) to inhibit pigmentation in 24 well plate. After 32 hpf, the embryos were fixed by 4% paraformaldehyde in PBS.
# Western blotting: Zebrafish embryos were homogenized in SDS sample buffer (30 embryos/30 μl of sample buffer) with microfuge pestle until the lysate became uniform in consistency and there was no longer stringy inside. The lysate was boiled for 5 minutes and centrifuged supernatant was processed for Western blotting (Hanai et al., J. Cell Biol. 158:529-539, 2002).
# [5] = tested on: C2C12 myotubes; test: Proteolytic rate in C2C12 myotubes (3H-tyrosine release); type: cell-based, mouse; settings: compared with control cultures
# Experimental: Measurement of Proteolytic Rate: Differentiated C2C12 myotubes were incubated with ^3H-tyrosine (5 μCi/mL media) for 20 hours to label cell proteins, and switched to medium containing 2 mM unlabeled tyrosine, vehicle, lovastatin, or dexamethasone for another 20 hours. After media replacement, an aliquot of medium was collected once per hour for 4 hours. The collected media was treated with TCA (10% w/v final concentration) to precipitate protein. Since the high concentration of unlabeled tyrosine in the media prevents re-incorporation of ^3H-tyrosine into new protein, the radioactivity in the supernatant represent degraded protein from the pool of prelabeled, intracellular, long-lived proteins. Proteolytic rate was defined as the percentage of released radioactivity per hour calculated from the period of 20 hours to 24 hours of lovastatin or dexamethasone treatment, when ^3H-tyrosine release is linear over time. These rates were compared with proteolytic rates in parallel cultures treated with vehicle alone. All measurements were done in triplicate and then independently repeated at least twice.
# [6] = tested on: atrogin-1 wildtype primary myotubes; test: Myotube size, wildtype primary mouse myotubes; type: cell-based; settings: control (wildtype) cultures, two days of exposure
# [7] = tested on: differentiated C2C12 mouse myocytes; test: C2C12 myotube morphology and diameter; type: cell-based
# Text: The effect of statins on muscle cells was studied by treating differentiated C2C12 mouse myocytes with various concentrations of lovastatin. […] The reduction of myotube size was quantitated by measurement of myotube thickness. This effect was clearly visible at low lovastatin concentrations, in the range of those typically found in patients administered with this medication (Pan et al., J. Clin. Pharmacol. 30:797-801, 2002, and Hostein et al., Cancer Chemother. Pharmacol. 57:155-164, 2006).
# Cell Culture: Mouse myoblast cell line C2C12 was purchased from ATCC (ATCC, Manassas, Va.) and maintained in DMEM (Mediatech, Herndon, Va.) containing 10% fetal bovine serum (Hyclone, Logan, Utah) and penicillin (100U) and streptomycin (50 ug/ml; Invitrogen, Grand Island, N.Y.). When C2C12 cells reach to 90% confluence, medium was replaced with differentiation medium of DMEM supplemented with 2% horse serum (ATCC, Manassas, Va.) to induce myotube formation. Cells were used for experiments in 4-5 days after differentiation. Lovastatin (>98% purity) (mevinolin; Sigma, St. Louis, Mo.) was prepared as a 50 mM stock solution in DMSO as reagent vehicle, further diluted in DMSO, and added into the medium. The final volume DMSO in medium is not more than 0.125%, which there is not obvious cytotoxicity. Equal volume of reagent vehicle was used for all experiments and reagent vehicle only serviced as controls. Each experiment was performed at least three times.
# (§2) Myotube Fiber Size: Size was quantified by measuring a total of 200 tube diameters as described by Sandri et al. (supra). Briefly, muscle fiber size from four random fields at 100 magnification was measured using IMAGE software (Scion, Frederick, Md.). All data were expressed in Mean±S.E.M. Comparisons were made by using the Student's T-test, with p<0.05 being considered statistically significant.
# [8] = tested on: phosphor-Akt, phosphor-FoxO3, and phosphor-p70S6K; test: Phosphorylated Akt/FoxO3/p70S6K in C2C12 myotubes (immunoblot); type: cell-based, mouse; settings: 1, 2.5 or 5 μM, 24 hours
# Experimental: Western Blotting Cultured cells after treatment were collected at specific times and solubilized in RIPA lysis buffer (50 mM Tris-HCl, pH 7.4; 150 mM NaCl, 1% NP-40, 0.5% sodium deoxycholate, 0.1% SDS (Boston Bioproducts, Boston Mass.), protease (Roche) and phosphatase (Sigma) inhibitor cocktail). Proteins were separated by SDS-PAGE, transferred to PVDF membranes and visualized by Western blotting using alkaline phosphatase-based CDP-star chemiluminescent detection according to manufacturer's protocol (Applied Biosystems, Bedford, Mass.).
# (§3) The effect of lovastatin on FoxO-dependent activation of the atrogin-1 promoter in zebrafish embryos was also examined. Embryos were injected with a proximal fragment of the atrogin-1 promoter linked to luciferase or the same fragment with the FoxO site mutated (Sandri et al., Cell 117:399-412, 2004). Lovastatin (0.5 μM) stimulated the reporter luciferase activity more than 7-fold, while stimulating the FoxO-less reporter only 3-fold (FIG. 14B). […] Since lovastatin treatment still lead to a small amount of luciferase activity even in the absence of FoxO binding sites in the atrogin-1 promoter-reporter, additional signaling pathways may also be important in mediating the effects of statins on atrogin-1 expression in muscle.
# [9] = tested on: atrogin-1 (−/−) myotubes; test: Myotube size, atrogin-1 (-/-) primary mouse myotubes; type: cell-based; settings: 0.25 and 1.0 μM
# Experimental: as §2
# Cell Culture: Primary mouse myoblasts from atrogin-1 null mice (Regeneron, Tarrytown N.Y.) were isolated as follows: muscle was removed from the hind limbs of two-week old mice. After treatment with 0.1% collagenase D and Dispase II (Roche, Indianapolis, Ind.), the isolated cells were plated on collagen (Type I, Roche, Indianapolis, Ind.)-coated dishes. Myoblasts were subsequently enriched and cultured in F-10 nutrient medium with 20% fetal calf serum and 2.5 ng/ml bFGF (Invitrogen, Grand Island, N.Y.). Myotubes were induced in differentiation medium. All media contained 1× Primocin (InvivoGen, San Diego, Calif.). The cultures were maintained at 37° C., under 5% and 8% CO2 humidified air atmosphere for myoblasts and myotubes, respectively. Cultures were ready to use in assays on day 2 in differentiation medium when the myotubes had formed and were contracting.
# [10] = tested on: atrogin-1 protein; test: Atrogin-1 protein in C2C12 myotubes by Western blotting; type: cell-based, mouse; settings: vs non-treated control cells
# Experimental: Western Blotting Cultured cells after treatment were collected at specific times and solubilized in RIPA lysis buffer (50 mM Tris-HCl, pH 7.4; 150 mM NaCl, 1% NP-40, 0.5% sodium deoxycholate, 0.1% SDS (Boston Bioproducts, Boston Mass.), protease (Roche) and phosphatase (Sigma) inhibitor cocktail). […]
# [11] = tested on: Zebrafish embryos; test: Zebrafish embryo muscle fiber damage (myosin heavy chain staining); type: in vivo, Danio rerio
# Experimental: Zebrafish embryos were treated with lovastatin from 20 hpf to 32 hpf at different concentrations (0-5 μM).
# as §1
# Antibody staining: Whole zebrafish staining: Zebrafish embryos were fixed by 4% paraformaldehyde in PBS overnight. After fixation, the embryos were washed by PBS, stored for at least 1 h at −20° C. in methanol, and permeabilized for 30 min at −20° C. in acetone. Embryos were incubated with blocking buffer (1% BSA, 0.1% Tween-20 in PBS), and incubated with diluted primary antibody, anti-slow twitch myosin F59 (1: 200; Developmental Studies Hybridoma Bank (DSHB), Department of Biological Sciences, University of Iowa, Iowa City, Iowa 52242) (Crow and Stockdale, Dev. Biol. 118:333-342, 1986; and Devoto et al., Development 122:3371-3380, 1996) in blocking solution for overnight at 4° C. Staining was detected by using goat anti-mouse TRITC secondary antibody (1:200; Southern Biotechnology Associates, Inc.) in blocking solution for 4 h at RT (Birely et al., Dev. Biol. 280:162-176, 2005). Cross-sectional staining: Embryos were fixed overnight in 4% paraformaldehyde (PFA) and cryoprotected by the overnight incubation with increasing concentrations of sucrose (up to 30%). Samples were embedded in OCT compound and then equilibrated to −80° C. Sections (10 μm thick) were collected on SuperFrost/Plus slides and dried. Sections were rehydrated in PBS and blocked for 1 h in blocking buffer (1% BSA, 0.1% Tween in PBS). Sections were incubated overnight at 4° C. with primary antibody diluted in blocking buffer. Sections were stained with antibody as above.
# [12] = tested on: atrogin-1 promoter; test: Atrogin-1 promoter luciferase reporter in zebrafish embryos; type: in vivo, Danio rerio; settings: 0.5 μM
# Experimental: as §3
# [13] = before withdrawal in August 2001; cited from earlier work
smiles,measurement,setting,value
CCC(C)(C)C(=O)O[C@H]1C[C@@H](C)C=C2C=C[C@H](C)[C@H](CC[C@@H]3C[C@@H](O)CC(=O)O3)[C@H]21 [simvastatin],CK (clinical data),[1],"Weakness, CK 51,080; also recorded: Weakness, CK 8,264; also recorded: Weakness, CK 39,000; also recorded: Muscle pain and weakness, CK 62; also recorded: Muscle pain and weakness, CK 649"
CC[C@H](C)C(=O)O[C@H]1C[C@@H](C)C=C2C=C[C@H](C)[C@H](CC[C@@H]3C[C@@H](O)CC(=O)O3)[C@H]21 [lovastatin],MitoTracker fluorescence intensity,[2],shifted to the left
same,atrogin-1 mRNA,[3]; 6 hours,significantly increased
same,atrogin-1 mRNA induction,[3]; 36 hours,≤ 6 fold
same,zebrafish atrogin-1 mRNA and protein level,[4],clearly and dose-dependently elevated
same,increase in the rate of bulk muscle proteolysis,[5],5-10%
same,decrease of tube diameter,[6],≤ 50%
same,loss of myotubes,[7]; by 5 days,almost complete loss of myotubes
same,myotube morphology / thickness,[7]; increasing concentrations (0-10 μM) vs vehicle,myotubes became progressively thinner
same,treatment time after which morphological changes were visible,[7]; myotube cultures,24 hours
same,CK (clinical data),[1],"Weakness, CK 932"
same,phosphorylated signaling intermediates,[8],dose-dependent reduction
same,change in myotube size,[9],Little change in myotube size
same,atrogin-1 induction (protein),"[10]; 1.0 μM, 48 hours",about 1.5 fold
same,atrogin-1 induction (protein),[10]; 10 μM,about 2.5 fold
same,muscle phenotype,"[11]; 0-5 μM, 20 hpf to 32 hpf",clear dose-dependent muscle phenotypes
same,embryos with class 1 defects,[11]; 0.05 μM,more than 50%
same,embryos with class 3 changes,[11]; 5 μM,over 60%
same,"concentration giving class 1 changes (bowing, gap formation, fiber disruption)",[11]; 20 hpf to 32 hpf,25 to 50 nM
same,"concentration giving class 2 changes (fiber thinning, attenuated MHC staining)",[11]; 20 hpf to 32 hpf,50 to 500 nM
same,concentration giving class 3 changes (irregular somite boundaries),[11]; 20 hpf to 32 hpf,1000 to 5000 nM
same,stimulation of reporter luciferase activity,[12]; FoxO-less (FoxO site mutated) reporter,3 fold
same,stimulation of reporter luciferase activity,[12]; atrogin-1 promoter fragment with FoxO site,more than 7 fold
COCc1c(C(C)C)nc(C(C)C)c(/C=C/[C@@H](O)C[C@@H](O)CC(=O)O)c1-c1ccc(F)cc1 [cerivastatin],rhabdomyolysis-related deaths,[13],approximately 100
CC(C)c1c(C(=O)Nc2ccccc2)c(-c2ccccc2)c(-c2ccc(F)cc2)n1CC[C@@H](O)C[C@@H](O)CC(=O)O [atorvastatin],CK (clinical data),[1],"Muscle pain and weakness, CK 47; also recorded: Muscle pain and weakness, CK 73"
